Experimental findings from article PMC7658428, “Pigment Dispersing Factors and Their Cognate Receptors in a Crustacean Model, With New Insights Into Distinct Neurons and Their Functions” (Frontiers in Neuroscience, 2020) are described below.

The target in one test is T1, PDHR 43673 (Carcinus maenas, UniProt A0A7G7MT97).
T1 sequence (A0A7G7MT97 1-455): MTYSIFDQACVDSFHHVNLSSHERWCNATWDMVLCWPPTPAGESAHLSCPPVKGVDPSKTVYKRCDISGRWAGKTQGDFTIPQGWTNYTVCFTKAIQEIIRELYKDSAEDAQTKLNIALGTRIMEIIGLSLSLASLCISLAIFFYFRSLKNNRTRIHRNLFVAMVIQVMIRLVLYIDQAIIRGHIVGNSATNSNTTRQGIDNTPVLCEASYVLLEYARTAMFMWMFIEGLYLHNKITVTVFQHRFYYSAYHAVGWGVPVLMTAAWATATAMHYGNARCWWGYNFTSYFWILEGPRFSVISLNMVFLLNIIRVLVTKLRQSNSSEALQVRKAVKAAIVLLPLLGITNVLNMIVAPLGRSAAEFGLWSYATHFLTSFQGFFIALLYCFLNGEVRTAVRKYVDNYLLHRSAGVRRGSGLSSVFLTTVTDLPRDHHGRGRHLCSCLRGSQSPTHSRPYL
Nature of the test: heterologous aequorin-based receptor luminescence assay, PDHR 43673. Type of test: cell-based. The following applies: Ca2+ luminescence; for activation of PDHR 43673 (in words): CHO-K1-Aeq-Gα16 cells. As for the experimental part:
(§1) PCR of these transcripts was performed as described previously ([Alexander J. et al., 2018]; [Alexander J. L. et al., 2018]). Primer sequences for directional cloning and expression are shown in Supplementary Table 1. Correctly sized PCR products were directionally cloned into pcDNA 3.1 D/V5-His-TOPO plasmids (Invitrogen) and the recombinant vector transformed into TOP 10 competent cells (Invitrogen). Positive clones were cultured overnight in selective LB medium with 100 μg ml^–1 ampicillin, plasmids extracted (FastPlasmid Mini Kit, 5Prime, Hamburg, Germany), resequenced to confirm insert orientation and verification (MWG Eurofins, Ebersberg, Germany), and analyzed using Geneious V 9.1.8.
(§2) A heterologous cell–based assay using Chinese hamster ovary cells (CHO-K1) expressing apoaequorin (Perkin Elmer, Boston, MA, […]) and either the Gα16 or Gq subunit (control cells) was used to report intracellular Ca^2+ fluxes after exposure to ligand, as previously detailed ([Alexander J. et al., 2018]; [Alexander J. L. et al., 2018]).
(§3) Peptides used in the luminescence assay were synthetic C. maenas PDH-1-3 and e-PDH, DH-31 (Genecust Dudelange, Luxembourg). Peptides were reconstituted in 30% acetonitrile, aliquoted and dried by vacuum centrifugation and subsequently re-dissolved in BSA medium (DMEM/F, 50 mM HEPES, 0.1% BSA) immediately prior to assay, and dispensed into quadruplicate wells of white 96 well plates (OptiPlate, Perkin Elmer). Cell suspensions (5 × 10^6 cells/ml) were stirred gently and 50 μl amounts were injected into each well using a Mithras LB940 microplate reader (Berthold Technologies, Bad-Wildbad, Germany). Ca^2+ evoked luminescence was recorded for 40 s, followed by cell lysis (injection of 0.3% Triton-X 100 in BSA medium), and light emission recorded for a further 10 s. BSA medium was used for blank measurements (6 replicates per plate), and mock transfections with empty vectors for negative controls. Data reduction and analysis was done using MikroWin v5.18 (Mikrotek Laborsysteme, GmBH, Overath, Germany) and SigmaPlot v.13 (Systat Software Inc., San José CA, United States). Receptor responses were normalized against total Ca^2+ luminescence.

Another test concerns the target T2, PDHR 41189 (Carcinus maenas, UniProt A0A7G7MT96).
T2 sequence (A0A7G7MT96 1-455): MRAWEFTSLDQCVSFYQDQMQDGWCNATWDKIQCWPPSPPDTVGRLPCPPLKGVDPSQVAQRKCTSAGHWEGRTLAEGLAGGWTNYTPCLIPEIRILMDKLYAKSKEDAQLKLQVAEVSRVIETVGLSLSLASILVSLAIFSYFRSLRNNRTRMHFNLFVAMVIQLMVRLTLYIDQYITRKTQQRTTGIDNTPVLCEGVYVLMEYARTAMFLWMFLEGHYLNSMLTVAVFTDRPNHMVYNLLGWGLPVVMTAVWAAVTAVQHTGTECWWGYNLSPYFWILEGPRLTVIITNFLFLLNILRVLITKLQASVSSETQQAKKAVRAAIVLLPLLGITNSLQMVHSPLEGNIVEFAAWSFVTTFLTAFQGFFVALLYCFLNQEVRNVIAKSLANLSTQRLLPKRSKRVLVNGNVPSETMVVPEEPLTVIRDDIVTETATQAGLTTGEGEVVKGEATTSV
Nature of the test: heterologous aequorin-based receptor luminescence assay, PDHR 41189. Particulars: Ca2+ luminescence; for activation of PDHR 41189 (in words): CHO-K1-Aeq-Gα16 cells. Type of test: cell-based. Here is the method:
as §1, §2, §3

Test [1] has as its system red chromatophores (erythrophores) in the dactyl of the last walking leg. Nature of the test: chromatophore dispersion bioassay in vivo, red chromatophores (erythrophores). Set-up: species or system Carcinus maenas. The following applies: n = 6 crabs; for dose giving significant dispersion of red chromatophores (erythrophores): 40 min after injection, 10 μl, p < 0.05, Hogben-Slome index; for dispersion of red chromatophores (in words): significant responses to doses of around 0.5 pmol per crab 40 min after injection. As for the experimental part:
(§4) The pigmentary effector activity of all PDHs was measured in vivo using small (15–20 mm carapace width) C. maenas, which were light adapted against a white background (300 lux for 1 h). Pigment dispersion of the red and black chromatophores in the dactyl of the last walking leg was observed microscopically and indices of dispersion scored ([Hogben and Slome, 1931]). Peptides were reconstituted in physiological saline ([Saver et al., 1999]) immediately prior to assay, to minimize Met oxidation (storage of reconstituted peptides in frozen saline for extended periods completely abolished biological activity) and injected (10 μl) using hand-drawn, calibrated microcapillaries at 50–0.05 pmol per crab, with saline controls. Chromatophore dispersion indices were scored at 20 min intervals for 1 h.
(§5) FIGURE 9 The effect of PDHs on pigment migration in epidermal chromatophores of the 5th walking leg dactylus of C. maenas. Left panel: erythrophores, right panel: melanophores. Peptides were injected at 0.05–5 pmol per crab for PDH-1, -2, 5–50 pmol per crab for PDH-3, e-PDH, in 10 μl volumes. Mean (n = 6 crabs) chromatophore indices (Hogben-Slome) are indicated. Asterisks indicate significant differences in chromatophore stage (p < 0.05, Wilcoxon sign-rank test) 40 min after injection of peptide, compared to 0 min.

The subject of test [2] is black chromatophores (melanophores) in the dactyl of the last walking leg. Kind of test: chromatophore dispersion bioassay in vivo, black chromatophores (melanophores). Set-up: species or system Carcinus maenas. The following applies: injected 0.05–5 pmol per crab; n = 6 crabs; melanophores were invariably partially dispersed in all crabs. Here is the method:
as §4, §5

For test [3], the system named is red and black chromatophores in the dactyl of the last walking leg. Nature of the test: chromatophore dispersion bioassay in vivo, red and black chromatophores. Set-up: species or system Carcinus maenas. Particulars: n = 6 crabs; for potency in chromatophore dispersion assay (in words): injected 0.05–5 pmol per crab. Here is the method: as §4, §5
Another test concerns anti-PDH antiserum R171. Nature of the test: enzyme immunoassay (EIA), cross-reactivity with PDH antiserum R171. Type of test: binding. The following applies: for dose required to give an absorbance of 1.0 in the EIA: PDH antiserum R171 raised to PDH-1, 1:2000, absorbance at 405 nm. Here is the method: Fixed nervous systems were processed for whole mount IHC as previously described ([Webster et al., 2013]). In some, whole eyestalks, including cuticle were taken from postmolt crabs, and routinely fixed (Bouin’s) and processed for paraffin wax embedding; thick serial sections (25–30 μm) were then prepared and processed for IHC. Primary antiserum concentrations [anti-PDH code R171, raised to a thyroglobulin conjugate of PDH-1 as described ([Dircksen et al., 1987]) and characterized ([Wilcockson et al., 2011])] was 1:2000. Secondary antiserum dilution (Alexa Fluor 488 goat anti-rabbit, Invitrogen, Thermo Fisher Scientific) was 1:750. Preparations were mounted on cavity slides using Vectashield (VectorLabs, United Kingdom), cover slipped, sealed with nail varnish, and images collected and Z-stacked at 5 μm intervals on a Zeiss 710 confocal microscope equipped with Zen Black edition software (Carl Zeiss, Jena, Germany).
To identify the neurohormonal PDH inventory, 50 sinus glands (SG) were extracted in 2 M acetic acid and separated by HPLC. Conditions: 4.6 mm × 300 mm Jupiter C18 300 Å column (Phenomenex, Macclesfield, United Kingdom) 40–80% solvent B over 30 min, 1 ml/min, detection at 210 nm, solvent A, 0.11% trifluoroacetic acid (TFA); solvent B 60% acetonitrile, 0.1% TFA. Fractions (1 ml) were dried by vacuum centrifugation and reconstituted in 0.1 M bicarbonate buffer, pH 9.3 immediately prior to immunoassay. Standard PDHs (800 pmol) were subsequently chromatographed to establish SG fractions for further MS analysis. PDH immunoreactive fractions were identified by enzyme immunoassay (EIA). Reconstituted fractions (100 μl) were coated onto high protein binding microplates (Costar 3590, Corning, VWR International, United Kingdom), overnight at 4 °C, followed by washing (3 times with 0.1 M bicarbonate buffer), blocking (0.1% BSA, 1 h RT) and incubation in 100 μl/well 1:2000 anti-PDH in containing 0.1% Tween 20 (PBST), overnight 4 °C. After washing (5 times with PBST), plates were incubated in 1:5000 goat anti-rabbit peroxidase labeled IgG (Vector laboratories, United Kingdom), for 6 h, RT. After washing (5 times with PBST), peroxidase activity was visualized (0.04% ABTS, 0.01% H2O2 (30%), 0.1 M phosphate/citrate buffer, pH 4.0). PDH-1 2500-2.5 fmol per well was used to generate standard curves for quantification. Absorbance at 405 nm was measured on a microplate reader (Mithras LB 940) with data analysis (MikroWin v5.18).

Entries after “also recorded” stand apart in the source; their conditions may differ. Where no end group is shown, it is not given here. Bounds are passed on as bounds.

Regarding NSELINSILGLPKVMNDA-NH2 [PDH-1], on PDHR 43673, the “activation of PDHR 43673 (in words)” value is “activated by PDH-1 and PDH-2 at low nanomolar doses; also recorded: much more sensitive and larger luminescence responses; also recorded: activated the 43673 receptor in the low nanomolar range; also recorded: pronounced selectivity for PDH-1, -2”. Also, at PDHR 41189, the “activation of PDHR 41189 (in words)” value was “high nanomolar concentrations of PDH-1, -2 were needed to result in a luminescent signal”. Further, in test [1], the “dose giving significant dispersion of red chromatophores (erythrophores)” value is on record as “around 0.5 pmol per crab” and the “dispersion of red chromatophores (in words)” value is “effective in dispersing red chromatophores (erythrophores)”. Besides, the “dispersion of black chromatophores (melanophores) (in words)” value in test [2] is “also dispersed black chromatophores (melanophores), but to a lesser extent”. Besides, the “potency in chromatophore dispersion assay (in words)” value in test [3] is listed as “exhibit biological activity in the chromatophore dispersion assay”. Also, the “specificity of antiserum (in words)” value in the test with anti-PDH antiserum R171 (PDH antiserum R171) was “rather marked specificity to PDH-1; also recorded: marked selectivity for this peptide”. For the same substance, in the test with anti-PDH antiserum R171, the “dose required to give an absorbance of 1.0 in the EIA” value (from here on “dose required to give an absorbance”) was 150 fmol.
For NSELINSLLGLSRLMNEA-NH2 [PDH-2], on PDHR 43673, the “activation of PDHR 43673 (in words)” value was “activated by PDH-1 and PDH-2 at low nanomolar doses; also recorded: much more sensitive and larger luminescence responses; also recorded: activated the 43673 receptor in the low nanomolar range; also recorded: pronounced selectivity for PDH-1, -2”. In addition, at PDHR 41189, the “activation of PDHR 41189 (in words)” value is “high nanomolar concentrations of PDH-1, -2 were needed to result in a luminescent signal”. In addition, in test [1], the “dose giving significant dispersion of red chromatophores (erythrophores)” value is “around 0.5 pmol per crab” and the “dispersion of red chromatophores (in words)” value was “effective in dispersing red chromatophores (erythrophores)”. Moreover, in test [1] (lowest dose, 50 fmol per crab), the “dispersion of red chromatophores at the lowest dose (in words)” value is “some pigment dispersion was observed at the lowest dose (50 fmol per crab) although this was transient and statistically not significant”. Also, the “dispersion of black chromatophores (melanophores) (in words)” value in test [2] was “also dispersed black chromatophores (melanophores), but to a lesser extent”. For the same substance, in test [3], the “potency in chromatophore dispersion assay (in words)” value is recorded as “exhibit biological activity in the chromatophore dispersion assay; also recorded: very potent in the chromatophore dispersion assay”. Further, the “dose required to give an absorbance” value with anti-PDH antiserum R171 is recorded as > 10,000 fmol.
With NSELINTLLGSQDLGNMRNA-NH2 [e-PDH], the “activation of PDHR 43673 (in words)” value at PDHR 43673 was “micromolar concentrations of PDH-3 and e-PDH were necessary to activate this receptor; also recorded: even micromolar concentrations of PDH-3 and e-PDH were needed to produce rather weak luminescence responses”. The “activation of PDHR 41189 (in words)” value at PDHR 41189 is “activated by PDH-3 and an extended 20 residue e-PDH; also recorded: activated by PDH-3 and e-PDH at low nanomolar concentrations; also recorded: low nanomolar concentrations of PDH-3 and e-PDH activated this receptor; also recorded: preferentially activated by PDH-3 and e-PDH”. Further, the “chromatophore-dispersing activity (in words)” value in test [3] (5–50 pmol per crab, highest dose 50 pmol per crab) is “entirely without chromatophore-dispersing activity, even at the highest dose used”. Besides, the “dose required to give an absorbance” value with anti-PDH antiserum R171 is listed as 8000 fmol.
One may read the EC50 as the concentration that produces a half-maximal response. High values mean lower potency in that assay, low ones higher potency in that assay. For the substance “PDH-3: synthetic C. maenas pigment dispersing hormone 3, 18 residues, C-terminal Ala-amide; MN602309”, the EC50 worked out at 10 µM with PDHR 43673 (approximate EC50, CHO-K1-Aeq-Gα16 cells transiently expressing PDHR 43673, means of N = 4, normalized against maximum luminescence responses for PDH-1) and 0.025 µM with PDHR 41189 (approximate EC50, CHO-K1-Aeq-Gα16 cells transiently expressing PDHR 41189, means of N = 4, normalized against maximum luminescence responses for PDH-1).
Turning to “diuretic hormone-31 [DH-31, reference compound]”, the “activation of PDHR 43673 (in words)” value on PDHR 43673 was “Neither receptor was activated by DH-31”. The “activation of PDHR 41189 (in words)” value on PDHR 41189 is listed as “Neither receptor was activated by DH-31”.
